The values below come from patent publication US20110092456A1, “Methods of increasing cAMP levels and uses thereof” (priority 2009, published 2011).

For assay [1] the following is noted: cited from earlier work.
Assay [2] relates to middle cerebral artery occlusion. As to conditions: rat; 2 h occlusion, 24 h reperfusion; oral cilostazol 30 mg/kg, aspirin 300 mg/kg, clopidogrel 30 mg/kg; cited from earlier work.
In the next assay the test system is cAMP. The assay is described as follows: Myocardial cAMP levels, mouse. Particulars: for myocardial cAMP levels: mice, 3-day pretreatment, hearts not subjected to ischemia, words. The class given is in vivo. The protocol:
(§1) Protocol 1: Mice received 3-day pretreatment with: 1) SIT (300 mg/kg per day); 2) PIO (5 mg/kg per day); 3) SIT+PIO; or water alone (control). Drugs were suspended in water and administered by oral gavage once daily. On the 4th day, mice received intravenous H-89 (20 mg/kg) or vehicle (5% DMSO) (40). One hour after injection, mice underwent coronary artery ligation for 30 minutes followed by 4-hour reperfusion, or mice were euthanized under anesthesia and hearts were explanted without being subjected to ischemia. For immunoblotting and enzyme activity, hearts were rinsed in cold PBS (pH 7.4), containing 0.16 mg/ml heparin to remove red blood cells and clots, frozen in liquid nitrogen and stored at −80° C. for further analyses.
Myocardial samples from the anterior wall of the left ventricle of hearts that were not subjected to ischemia were homogenize in 1 ml cold extraction buffer [20 mM Tris-HCl (pH7.4), 0.5 mM EDTA, 0.5 mM EGTA, 10 mM β-mercaptoethanol, 1 mM phenylmethylsulfonyl fluoride, 0.1 mM dithiothreitol (DTT), 1 μg/ml leupeptin, 1 μg/ml aprotinin, 0.1% TritonX-100], centrifuged at 14,000×g for 15 min at 4° C., and the supernatants were collected. cAMP levels and PKA activity were measured using assay kits according to the manufacturer's instructions.
For orientation: cAMP levels reflect the balance of adenylyl cyclase and phosphodiesterase activity.

The test system of the next assay is 15-epi-lipoxinA4. The assay is described as follows: Myocardial 15-epi-lipoxinA4 levels, mouse. The class given is in vivo. The protocol: as §1
(§2) Myocardial samples of the anterior wall of the left ventricle were homogenized in cold PBS (pH 7.4), and centrifuged. The supernatants were collected and stored on ice. Measurement of 6-Keto-PGF1α, the stable metabolite of prostacyclin, 15dPGJ2, 15-epilipoxinA4, and PLA2 activity were made using immunoassay assay kits. The COX activity assay kit measures the peroxidase activity of COX, assayed colorimetrically by monitoring the appearance of oxidized N,N,N″,N″-tetramethyl-p-phenylenediamaine (TMPD) at 590 nm. Each myocardial sample was tested in triplicate (the first without an inhibitor; the second with DuP-697, a specific COX2 inhibitor; and the third with Sc560, a specific COX1 inhibitor. COX1 activity was calculated as the difference between total COX activity in the sample without an inhibitor and the sample with Sc560, and COX2 activity as the difference between total COX activity in the sample without an inhibitor and the sample with DuP-697.

Another assay has as its system COX2. The assay is described as follows: Myocardial COX2 activity, mouse. As to conditions: for COX2 activity: mice, 3-day pretreatment, words. The class given is in vivo. How it is done:
as §1, §2

For a further assay, the system named is eNOS. In words: Immunoblotting of myocardial eNOS, mouse. It is filed as in vivo. The protocol: as §1
(§3) Myocardial samples from the risk zone of the anterior wall of the left ventricular wall exposed to ischemia-reperfusion (IR), or from the anterior wall of control hearts not exposed to ischemia were homogenized in lysis buffer (in mMol): 25 Tris.HCl (pH 7.4), 0.5 EDTA, 0.5 EGTA, 1 phenylmethylsulfonyl 193 fluoride, 1 dithiothreitol, 25 NaF, 1 Na3VO4, 1% Triton X-100, 2% SDS and 1% 194 protease inhibitor cocktail. The lysate was centrifuged at 10,000 g for 15 min at 4° C. The resulting supernatants were collected. Protein (50 μg) was fractionated by SDS-PAGE (4%-20% polyacrylamide gels) and transferred to PVDF membranes (Millipore, Bedford, Mass.). The membranes were incubated overnight at […] with primary antibodies. Bound antibodies were detected using the chemiluminescent substrate (NEN Life Science Products, Boston, Mass.). The protein signals were quantified 200 with an image-scanning densitometer, and the strength of each 201 protein signal was normalized to the corresponding β-actin signal. Data are expressed as percent of the expression in the 202 control group.
A general note: Immunoblotting shows a protein as a band on a membrane.

A further assay relates to CREB. In words: Immunoblotting of myocardial CREB, mouse. As to conditions: IR. It is filed as in vivo. How it is done:
as §1, §3

The subject of assay [3] is coronary artery ligation for 30 minutes followed by 4-hour reperfusion. In words: Mouse coronary artery ligation/reperfusion infarct size. The class given is in vivo. As to conditions: for IS, expressed as a percent of the left ventricle or a percent of the area at risk: words. The protocol:
as §1
Protocol 2: Mice received 14-day pretreatment with: 1) SIT (300 mg/kg per day); 2) PIO (5 mg/kg per day); 3) SIT+PIO; or water alone (control), as above. Mice underwent coronary artery ligation for 30 minutes followed by 4-hour reperfusion. […] The chest was opened and the left coronary artery was encircled with a suture and ligated for 30 minutes. Ischemia was verified by regional dysfunction and discoloration of the ischemic zone.
Hearts were excised and the left ventricle was sliced transversely into 6 sections. Slices were incubated for 10 minutes at 37 C in 1% buffered (pH=7.4) 2,3,5-triphenyl tetrazolium-chloride (TTC), fixed in a 10% formaldehyde and photographed in order to identify the AR (uncolored by the blue dye), the IS (unstained by TTC), and the non ischemic zones (colored by blue dye). The area of AR and IS in each slice were determined by planimetry, converted into percentages of the whole for each slice, and multiplied by the weight of the slice. The results were summed to obtain the weight of the myocardial AR and IS (38, 39).

For another assay, the system named is 15dPGJ2. In words: Myocardial 15dPGJ2 levels, mouse. It is filed as in vivo. How it is done: as §1
(§4) Myocardial samples of the anterior wall of the left ventricle were homogenized in cold PBS (pH 7.4), and centrifuged. The supernatants were collected and stored on ice. […] Each myocardial sample was tested in triplicate (the first without an inhibitor; the second with DuP-697, a specific COX2 inhibitor; and the third with Sc560, a specific COX1 inhibitor. COX1 activity was calculated as the difference between total COX activity in the sample without an inhibitor and the sample with Sc560, and COX2 activity as the difference between total COX activity in the sample without an inhibitor and the sample with DuP-697.

The next assay relates to 6-keto-PGF1α. In words: Myocardial 6-keto-PGF1α levels, mouse. The class given is in vivo. How it is done:
as §1, §4

In a further assay the test system is Protein Kinase A (PKA). The assay is described as follows: Myocardial PKA activity, mouse. It is filed as in vivo. How it is done:
Protocol 1: Mice received 3-day pretreatment with: 1) SIT (300 mg/kg per day); 2) PIO (5 mg/kg per day); 3) SIT+PIO; or water alone (control). Drugs were suspended in water and administered by oral gavage once daily. […] One hour after injection, mice underwent coronary artery ligation for 30 minutes followed by 4-hour reperfusion, or mice were euthanized under anesthesia and hearts were explanted without being subjected to ischemia.

The next assay deals with cPLA2. In words: Myocardial cPLA2 activity, mouse. The class given is in vivo. Particulars: for cPLA2 activity: mice, 3-day pretreatment, words. How it is done: as §1, §2
The mark [4] stands for this setting: 50 patients, primary stenting for ST elevation acute myocardial infarction, cilostazol 100 mg BID versus aspirin alone.
[5] abbreviates: mice, 3-day pretreatment, words.
Setting [6] is: mice, 3-day pretreatment, IR-induced increase, immunoblot, words.
[7] abbreviates: Protocol 1: mice, 3-day pretreatment (SIT 300 mg/kg per day, PIO 5 mg/kg per day), H-89 20 mg/kg i.v. alone.
Where [8] appears, read: H-89 20 mg/kg i.v. after 3-day SIT.
The mark [9] stands for this setting: H-89 20 mg/kg i.v. after 3-day PIO.
[10] abbreviates: H-89 20 mg/kg i.v. after 3-day PIO, IR.
[11] abbreviates: H-89 20 mg/kg i.v. after 3-day SIT, IR.

In the case of `CC(=O)Oc1ccccc1C(=O)O` [aspirin], in assay [1] (setting [4]), the 6-month restenosis rate was 20% and the target lesion revascularization is given as 16%. Moreover, in assay [1] (70 patients, Palmaz-Schatz stenting, cilostazol 200 mg/d, aspirin 81 mg/d), the in-stent stenosis is recorded as 26.8%. The brain infarct size entry in [2] is on record as “but not aspirin (300 mg/kg) or clopidogrel (30 mg/kg) reduced brain infarct size”.
Regarding `COC(=O)[C@H](c1ccccc1Cl)N1CCc2sccc2C1` [clopidogrel], the brain infarct size entry in [2] was “but not aspirin (300 mg/kg) or clopidogrel (30 mg/kg) reduced brain infarct size”.
For `N[C@@H](CC(=O)N1CCn2c(nnc2C(F)(F)F)C1)Cc1cc(F)c(F)cc1F` [SIT, sitagliptin phosphate], in the assay with cAMP, the “myocardial cAMP levels” value is “significant increase”. Besides, the 15-epi-lipoxinA4 levels entry in the assay with 15-epi-lipoxinA4 (setting [5]) is on record as “significantly increased”. In the assay with COX2, the COX2 activity entry is on record as “no effect on COX2 activity”. In the assay with eNOS (setting [6]), the “Ser-633 P-eNOS levels” value is “augmented this increase”. In addition, in the assay with eNOS (setting [6]), the “Ser-1177 P-eNOS levels” value is “augmented this increase”. Further, the “total eNOS levels” value with eNOS (mice, 3-day pretreatment, ischemia-reperfusion (IR), immunoblot, words) was “no effect on total eNOS levels”. In addition, the “total CREB levels” value in the assay with CREB (mice, 3-day pretreatment, immunoblot, words) is on record as “did not affect total CREB levels”. For the same molecule, the “levels of P-CREB” value in the assay with CREB (mice, 3-day pretreatment, versus control no IR or control IR, words) is listed as “significantly higher”. Moreover, the “IS, expressed as a percent of the left ventricle or a percent of the area at risk” value was “significantly smaller” in assay [3] (setting [7]) and “significantly smaller” in assay [3] (Protocol 2: mice, 14-day pretreatment (SIT 300 mg/kg per day, PIO 5 mg/kg per day)). For the same molecule, the 15dPGJ2 levels entry in the assay with 15dPGJ2 (setting [5]) is given as “no effect”. The 6-keto-PGF1α levels result in the assay with 6-keto-PGF1α (setting [5]) is on record as “no effect”. In the assay on Protein Kinase A (PKA) (mice, 3-day pretreatment, hearts not subjected to ischemia, words), the “myocardial PKA activity” value is “augmented PKA activity”. Further, in the assay on cPLA2, the cPLA2 activity result is recorded as “but not SIT, augmented cPLA2 activity”.
As for `O=S(=O)(NCCNC/C=C/c1ccc(Br)cc1)c1cccc2cnccc12` [H-89], the “myocardial cAMP levels: H-89 on the SIT effect” value in the assay with cAMP (setting [8]) is “did not block the SIT effect”. Moreover, in the assay with cAMP, the “myocardial cAMP levels” value is listed as “no effect on cAMP levels”. In addition, the “15-epi-lipoxinA4 levels: H-89 on the effect of PIO” value in the assay with 15-epi-lipoxinA4 (setting [9]) is “completely blocked the effect of both PIO and SIT”. Further, in the assay with 15-epi-lipoxinA4 (setting [8]), the “15-epi-lipoxinA4 levels: H-89 on the effect of SIT” value is “completely blocked the effect of both PIO and SIT”. Moreover, the “COX2 activity: H-89 on the PIO induced increase” value in the assay on COX2 (setting [9]) is reported as “did not block the PIO induced increase”. In addition, in the assay on COX2 (setting [8]), the “COX2 activity: H-89 in combination with SIT” value is recorded as “no effect on COX2 activity”. In addition, the COX2 activity result in the assay with COX2 is listed as “no effect on COX2 activity”. Moreover, in the assay with eNOS (setting [10]), the “Ser-633 P-eNOS levels: H-89 on the effect of PIO” value is “attenuated this increase”; the “Ser-1177 P-eNOS levels: H-89 on the effect of PIO” value is “attenuated the effects of both SIT and PIO”. Moreover, in the assay on eNOS (setting [11]), the “Ser-633 P-eNOS levels: H-89 on the effect of SIT” value is “attenuated this increase”; the “Ser-1177 P-eNOS levels: H-89 on the effect of SIT” value is “attenuated the effects of both SIT and PIO”. Further, the “levels of P-CREB: H-89 on the effect of PIO” value in the assay with CREB (setting [9]) was “blocked this effect of SIT and PIO”. The “levels of P-CREB: H-89 on the effect of SIT” value with CREB (setting [8]) was “blocked this effect of SIT and PIO”. Moreover, the “IS, expressed as a percent of the left ventricle or a percent of the area at risk” value in [3] (setting [7]) was “no effect on IS”. The “IS: effect of H-89 on the effect of PIO” value in assay [3] (Protocol 1, H-89 20 mg/kg i.v. one hour before ligation after 3-day PIO) is recorded as “only partially blocked the effect of PIO”. In assay [3] (Protocol 1, H-89 20 mg/kg i.v. one hour before ligation after 3-day SIT), the “IS: effect of H-89 on the effect of SIT” value is given as “completely blocked the effect of SIT”. Moreover, in the assay with 15dPGJ2 (setting [9]), the “15dPGJ2 levels: H-89 on the effect of PIO” value is “did not block the effect of PIO”. Further, the “6-keto-PGF1α levels: H-89 on the effect of PIO” value in the assay with 6-keto-PGF1α (setting [9]) is recorded as “did not block the effect of PIO”. Further, in the assay with Protein Kinase A (PKA) (setting [9]), the “PKA activity: H-89 on the PIO induced increase” value is listed as “completely blocked”. Also, the “PKA activity: H-89 on the SIT induced increase” value with Protein Kinase A (PKA) (setting [8]) was “completely blocked”. Moreover, the “cPLA2 activity: H-89 on the effect of PIO” value in the assay on cPLA2 (setting [9]) is “did not block the effect of PIO”. Moreover, the “cPLA2 activity: H-89 in combination with SIT” value in the assay with cPLA2 (setting [8]) is listed as “no effect on cPLA2 activity”. Further, the cPLA2 activity result in the assay on cPLA2 is listed as “no effect on cPLA2 activity”.
